{
  "source": "patent US20220323443A1",
  "about": "“COMBINATION THERAPY FOR CANCER TREATMENT” (TAKEDA PHARMACEUTICAL COMPANY LIMITED, priority 2019, published 2022)",
  "key": {"[1]": {"tested_on": "COLO205 human colorectal adenocarcinoma xenografts", "test": "In vivo antitumor activity of Compound 1 and irradiation in nude mice", "set-up": "species or system mouse", "conditions": "Compound 1 40 mg/kg orally once daily Day 1-14 combined with irradiation 3 Gy on Day 1, 2, 3, 8, 9, 10", "procedure": "Human colorectal carcinoma cell line, COLO205 xenograft model was established by subcutaneous injection of cell suspension (5×10^6 cells/100 μl/site, in 1:1 mixture of Hanks' balanced salt and BD Matrigel™ Matrix (BD biosciences)). Mice with tumor size of approximately 200 mm^3 were randomly assigned to dose groups on the day before start date of dosing (Day 0). Compound 1 was suspended in 0.5 w/v % methylcellulose and administered orally to mice at a dose of 40 mg/kg once daily on Day 1-14. Mice in irradiation groups were irradiated at a dose of 3 Gy daily on Day 1, 2, 3, 8, 9 and 10 under pentobarbital anesthesia. Tumors on the flanks of the mice were irradiated using an X-ray irradiator (MBR-1520R-3, Hitachi Power Solutions Co., Ltd., Ibaraki) and non-tumor part of mice were shielded by lead plate. Tumor size was measured by caliper and tumor volume was estimated using the equation V=(LW^2)/2, where L and W are tumor length and width, respectively and reported in cubic millimeters (FIG. 3)."}, "[2]": {"tested_on": "RNASEH2A knockout (KO) TK-6 cells and parental TK-6 cells", "test": "In vitro growth inhibition assay, Cell Titer-Glo, 72 hours", "type": "cell-based", "conditions": "FIG. 9", "procedure": "To determine further whether RNASEH2A is involved in the sensitization to compound 1, in vitro growth inhibition assay of compound 1 was carried out in RNASEH2A knockout (KO) TK-6 cells and its counterpart parental TK-6 cells. RNASEH2A KO TK-6 cells and its counterpart parental TK-6 cells were obtained from Kyoto University under a material transfer agreement. The cell lines were cultured in RPMI-1640 medium (FUJIFILM Wako Pure Chemical Corporation, Osaka, JAPAN) supplied with 10% Fetal Bovine Serum (CORNING Inc., NY, USA), sodium pyruvate (FUJIFILM Wako Pure Chemical Corporation, Osaka, JAPAN), and Penicillin-Streptomycin (FUJIFILM Wako Pure Chemical Corporation, Osaka, JAPAN). Stock solutions of compound 1 were prepared in dimethyl sulfoxide (DMSO), and stored at approximately −20 deg C.\nCell proliferation was measured by using Cell Titer-Glo Luminescent Cell Viability Assay (Promega, WI, USA.). The CellTiter-Glo Luminescent Cell Viability Assay is a homogeneous method of determining the number of viable cells in culture based on quantitation of the ATP present, which signals the presence of metabolically active cells. […] Luminescence of each well was measured by EnVision™ (PerkinElmer Inc., MA, USA). Taking as 100% the ATP content for the DMSO treatment control group, the ratio of the residual ATP content for each treatment group was determined. […]"}},
  "data": [
    {"smiles": "Cc1[nH]ncc1-c1cc2nc([C@@H]3CC4CCN3CC4)[nH]c(=O)c2s1", "note": "[Compound 1, 2-[(2S)-1-azabicyclo[2.2.2]oct-2-yl]-6-(3-methyl-1H-pyrazol-4-yl)thieno[3,2-d]pyrimidin-4(3H)-one]", "values": [
      {"measurement": "antitumor activity (tumor volume)", "setting": "[1]", "result": "strong antitumor activity and enhanced antitumor efficacy compared to either single treatment alone"},
      {"measurement": "sensitivity (growth inhibition) of RNASEH2A KO TK-6 cells versus WT TK-6 cells", "setting": "[2]", "result": "more sensitive"}
    ]}
  ]
}
